Where “and” joins values, the source holds several entries; their conditions need not be identical. Equal entries are not always repeated. Calls of active or inactive are those of the source.
Tests used:
[1] = target: Cytochrome P450 3A4 (Homo sapiens, UniProt P08684); details: Potency;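 note: confirmatory qHTS run detecting inhibitors and substrates of CYP3A4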
[2] = system: H9c2; test: cells; assay type: functional, cell-based; details: Rattus norvegicus, H9c2, Myocardium;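 note: confirmatory concentration-response retest of ultra-high-throughput screening hits for modulation of myocardial damage; cell death induced by hydrogen peroxide oxidative stress; compound pretreatment for 60 min then peroxide exposure for 2 h; potency is for protecting the cells against peroxide damage rather than for killing them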
[3] = target: T1, High affinity choline transporter 1 (Homo sapiens, UniProt Q9GZV3); test: CHT inhibitors, dose response, cell-based, 5-point CRC, membrane potential dye (AID 504840); assay type: functional
T1 sequence (Q9GZV3 whole entry): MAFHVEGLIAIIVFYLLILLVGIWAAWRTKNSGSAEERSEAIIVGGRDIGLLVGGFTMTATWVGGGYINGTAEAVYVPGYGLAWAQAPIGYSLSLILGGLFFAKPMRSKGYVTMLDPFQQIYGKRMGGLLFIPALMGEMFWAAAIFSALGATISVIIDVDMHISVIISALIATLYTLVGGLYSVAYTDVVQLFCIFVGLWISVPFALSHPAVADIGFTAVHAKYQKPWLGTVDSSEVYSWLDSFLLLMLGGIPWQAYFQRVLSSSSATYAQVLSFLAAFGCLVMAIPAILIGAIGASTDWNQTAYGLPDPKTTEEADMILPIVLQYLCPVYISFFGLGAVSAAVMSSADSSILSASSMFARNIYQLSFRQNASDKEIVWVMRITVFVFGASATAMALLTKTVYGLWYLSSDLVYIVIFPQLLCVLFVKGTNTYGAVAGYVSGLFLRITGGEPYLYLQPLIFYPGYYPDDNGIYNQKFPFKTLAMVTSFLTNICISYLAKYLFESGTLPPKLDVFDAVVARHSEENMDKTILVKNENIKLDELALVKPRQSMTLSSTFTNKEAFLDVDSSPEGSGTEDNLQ

[4] = target: T2, Calpain-2 catalytic subunit (Sus scrofa, UniProt P43367); test: pig calpain II inhibitor potency, dose response, biochemical, fluorogenic peptide substrate (AID 1420); assay type: functional
T2 sequence (P43367 whole entry): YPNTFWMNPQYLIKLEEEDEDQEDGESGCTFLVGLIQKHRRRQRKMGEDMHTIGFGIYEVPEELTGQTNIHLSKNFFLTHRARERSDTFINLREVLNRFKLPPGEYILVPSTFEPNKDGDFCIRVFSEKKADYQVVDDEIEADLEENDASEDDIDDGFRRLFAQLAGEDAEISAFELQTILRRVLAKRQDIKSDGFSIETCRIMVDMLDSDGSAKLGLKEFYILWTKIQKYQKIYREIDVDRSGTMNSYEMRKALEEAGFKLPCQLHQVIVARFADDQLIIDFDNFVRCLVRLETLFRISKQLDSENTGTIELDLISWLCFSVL

[5] = target: T3, Carboxy-terminal domain RNA polymerase II polypeptide A small phosphatase 1 (Homo sapiens, UniProt Q9GZU7); test: inhibitors of CTDSP1, concentration-response testing, biochemical assay, absorbance-based, actives from ultra-high-throughput screening (AID 540297); assay type: functional
T3 sequence (Q9GZU7 whole entry): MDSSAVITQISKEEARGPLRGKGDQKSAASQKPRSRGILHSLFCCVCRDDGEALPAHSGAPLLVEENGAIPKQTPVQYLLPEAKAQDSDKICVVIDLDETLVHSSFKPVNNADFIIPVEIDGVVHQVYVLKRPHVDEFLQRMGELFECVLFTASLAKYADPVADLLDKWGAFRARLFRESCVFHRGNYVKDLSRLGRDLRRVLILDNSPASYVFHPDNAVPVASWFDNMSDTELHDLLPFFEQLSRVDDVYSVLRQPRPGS

[6] = target: Induced myeloid leukemia cell differentiation protein Mcl-1 (Homo sapiens, UniProt Q07820); assay type: functional
[7] = target: Genome polyprotein (dengue virus type 2, UniProt P29990); test: Dengue-2 NS5 methyltransferase inhibitors, primary screen, biochemical, confirmation dose response (AID 588689); assay type: functional
[8] = inhibitors of SNCA 5'UTR-driven reporter translation, confirmation, H4 neuroglioma cells, luminescence (AID 1988); assay type: functional, cell-based
[9] = inhibitors of firefly luciferase expression or activity, dose response, H4 neuroglioma cells, luminescence (AID 1990); assay type: functional, cell-based
[10] = Luminescence Cell-Based Dose Response HTS to Identify Inhibitors of 5'UTR Stem-Loop Driven Prion Protein mRNA Translation in H4 Neuroglioblastoma Cells. [Related pubchem assays: 1827 (Project Summary), 1813 (Primary HTS)]; assay type: functional
[11] = target: T4, Corticotropin-releasing factor receptor 2/Corticotropin-releasing factor-binding protein (Homo sapiens, UniProt P24387+Q13324); test: activators of CRF receptor 2 with binding protein – uHTS hits, confirmation (AID 602473); assay type: functional; details: read-out: EC50_Mean
T4 sequence (Q13324 whole entry): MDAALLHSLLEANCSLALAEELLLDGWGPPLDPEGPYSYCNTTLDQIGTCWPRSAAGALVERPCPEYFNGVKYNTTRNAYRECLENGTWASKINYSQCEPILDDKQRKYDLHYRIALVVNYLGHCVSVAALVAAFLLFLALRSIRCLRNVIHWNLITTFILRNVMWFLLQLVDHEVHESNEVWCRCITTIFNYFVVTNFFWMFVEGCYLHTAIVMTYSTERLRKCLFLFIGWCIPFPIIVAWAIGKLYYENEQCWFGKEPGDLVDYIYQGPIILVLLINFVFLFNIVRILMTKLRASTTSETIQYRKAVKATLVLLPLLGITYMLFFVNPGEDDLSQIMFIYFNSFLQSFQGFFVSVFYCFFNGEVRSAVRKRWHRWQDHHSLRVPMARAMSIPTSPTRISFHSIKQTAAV
T4 sequence (P24387 whole entry): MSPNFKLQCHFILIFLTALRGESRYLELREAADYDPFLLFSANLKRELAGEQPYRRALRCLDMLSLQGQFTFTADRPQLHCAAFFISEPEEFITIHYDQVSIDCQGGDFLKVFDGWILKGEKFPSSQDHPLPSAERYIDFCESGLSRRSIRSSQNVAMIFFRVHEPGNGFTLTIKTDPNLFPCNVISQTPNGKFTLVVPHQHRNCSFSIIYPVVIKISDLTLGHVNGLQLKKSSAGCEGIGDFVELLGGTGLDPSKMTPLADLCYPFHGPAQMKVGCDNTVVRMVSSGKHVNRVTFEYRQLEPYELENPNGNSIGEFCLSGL

[12] = target: T5, Rac GTPase-activating protein 1 (Homo sapiens, UniProt Q9H0H5); test: MgcRacGAP GTPase-activating activity inhibitors, confirmation, biochemical, ADP Hunter fluorescence, primary and confirmatory (AID 624330); assay type: functional
T5 sequence (Q9H0H5 whole entry): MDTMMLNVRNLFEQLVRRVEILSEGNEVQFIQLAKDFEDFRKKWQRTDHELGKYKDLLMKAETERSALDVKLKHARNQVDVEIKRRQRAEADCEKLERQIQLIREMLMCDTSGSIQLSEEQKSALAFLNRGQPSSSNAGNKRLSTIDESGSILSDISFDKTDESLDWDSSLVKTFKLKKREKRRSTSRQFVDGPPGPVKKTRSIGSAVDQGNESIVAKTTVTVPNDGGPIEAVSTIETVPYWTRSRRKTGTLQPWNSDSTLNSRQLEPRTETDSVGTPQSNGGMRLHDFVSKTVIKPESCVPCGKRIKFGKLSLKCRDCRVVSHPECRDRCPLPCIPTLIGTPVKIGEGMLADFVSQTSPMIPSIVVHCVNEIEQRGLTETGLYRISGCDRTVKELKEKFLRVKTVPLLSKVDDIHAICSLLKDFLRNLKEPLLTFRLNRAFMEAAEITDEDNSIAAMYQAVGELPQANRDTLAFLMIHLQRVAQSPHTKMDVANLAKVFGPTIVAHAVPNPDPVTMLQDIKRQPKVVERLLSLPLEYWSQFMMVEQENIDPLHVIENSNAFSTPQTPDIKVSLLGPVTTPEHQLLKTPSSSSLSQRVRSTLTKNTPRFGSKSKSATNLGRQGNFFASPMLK

[13] = target: Large T antigen (Simian virus 40, UniProt P03070); assay type: functional, Betapolyomavirus macacae;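 note: Confirmatory-stage PubChem screen for compounds that inhibit SV40 T antigen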
[14] = target: Cytochrome P450 2D6 (Homo sapiens, UniProt P10635);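 note: CYP2D6 member of a cytochrome P450 panel assay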
[15] = cells; assay type: functional
[16] = cytotoxicity toward NIH3T3 fibroblasts, dose response, counter-screen, cell-based, ATP luminescence, mouse fibroblasts (AID 2010); assay type: functional;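 note: cells exposed to compound for about 90 hours before reading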
[17] = inhibitors of intracellular T. cruzi replication, confirmation, NIH3T3 host cells, beta-gal luminescence (AID 2044); assay type: functional, cell-based;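 note: intracellular parasites grown in NIH/3T3 mouse fibroblasts as host cells; luminescent beta-galactosidase reporter signal from transgenic T. cruzi replicating inside host cells; inhibitors lower the luminescence signal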

Large T antigen, sequence (P03070 whole entry): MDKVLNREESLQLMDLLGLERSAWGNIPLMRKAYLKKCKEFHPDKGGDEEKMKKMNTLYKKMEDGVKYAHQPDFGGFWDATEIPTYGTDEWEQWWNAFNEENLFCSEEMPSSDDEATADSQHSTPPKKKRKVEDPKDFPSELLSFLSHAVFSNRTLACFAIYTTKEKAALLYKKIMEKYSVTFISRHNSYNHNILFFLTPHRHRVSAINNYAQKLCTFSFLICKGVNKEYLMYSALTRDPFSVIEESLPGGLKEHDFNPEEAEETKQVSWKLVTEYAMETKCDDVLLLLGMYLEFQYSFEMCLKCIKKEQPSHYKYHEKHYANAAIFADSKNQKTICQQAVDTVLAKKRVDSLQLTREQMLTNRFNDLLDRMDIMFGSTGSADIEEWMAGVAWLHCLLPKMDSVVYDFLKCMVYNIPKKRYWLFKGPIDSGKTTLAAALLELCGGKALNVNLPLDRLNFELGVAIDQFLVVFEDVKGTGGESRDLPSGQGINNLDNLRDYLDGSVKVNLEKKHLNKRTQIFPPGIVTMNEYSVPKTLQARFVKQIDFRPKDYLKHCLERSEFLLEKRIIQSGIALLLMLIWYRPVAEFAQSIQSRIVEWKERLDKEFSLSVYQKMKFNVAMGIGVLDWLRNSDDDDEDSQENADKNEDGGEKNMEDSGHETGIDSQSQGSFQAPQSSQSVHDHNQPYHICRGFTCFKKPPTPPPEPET
Cytochrome P450 3A4, sequence (P08684 whole entry): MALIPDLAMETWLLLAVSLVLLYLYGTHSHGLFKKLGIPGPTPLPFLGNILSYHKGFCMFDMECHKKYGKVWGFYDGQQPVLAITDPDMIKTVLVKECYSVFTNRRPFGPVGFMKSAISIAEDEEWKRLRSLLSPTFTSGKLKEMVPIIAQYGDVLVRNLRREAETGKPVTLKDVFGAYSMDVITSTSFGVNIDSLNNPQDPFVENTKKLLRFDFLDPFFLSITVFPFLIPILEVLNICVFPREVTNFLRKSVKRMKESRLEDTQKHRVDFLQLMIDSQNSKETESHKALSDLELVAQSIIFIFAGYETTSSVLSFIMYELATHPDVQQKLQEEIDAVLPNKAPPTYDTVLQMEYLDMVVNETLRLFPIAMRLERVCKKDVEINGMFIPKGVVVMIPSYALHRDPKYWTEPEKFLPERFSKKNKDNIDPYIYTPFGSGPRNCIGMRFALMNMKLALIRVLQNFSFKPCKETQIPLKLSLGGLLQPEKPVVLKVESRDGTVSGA
Genome polyprotein, sequence (P29990 2492-3391 limits assumed): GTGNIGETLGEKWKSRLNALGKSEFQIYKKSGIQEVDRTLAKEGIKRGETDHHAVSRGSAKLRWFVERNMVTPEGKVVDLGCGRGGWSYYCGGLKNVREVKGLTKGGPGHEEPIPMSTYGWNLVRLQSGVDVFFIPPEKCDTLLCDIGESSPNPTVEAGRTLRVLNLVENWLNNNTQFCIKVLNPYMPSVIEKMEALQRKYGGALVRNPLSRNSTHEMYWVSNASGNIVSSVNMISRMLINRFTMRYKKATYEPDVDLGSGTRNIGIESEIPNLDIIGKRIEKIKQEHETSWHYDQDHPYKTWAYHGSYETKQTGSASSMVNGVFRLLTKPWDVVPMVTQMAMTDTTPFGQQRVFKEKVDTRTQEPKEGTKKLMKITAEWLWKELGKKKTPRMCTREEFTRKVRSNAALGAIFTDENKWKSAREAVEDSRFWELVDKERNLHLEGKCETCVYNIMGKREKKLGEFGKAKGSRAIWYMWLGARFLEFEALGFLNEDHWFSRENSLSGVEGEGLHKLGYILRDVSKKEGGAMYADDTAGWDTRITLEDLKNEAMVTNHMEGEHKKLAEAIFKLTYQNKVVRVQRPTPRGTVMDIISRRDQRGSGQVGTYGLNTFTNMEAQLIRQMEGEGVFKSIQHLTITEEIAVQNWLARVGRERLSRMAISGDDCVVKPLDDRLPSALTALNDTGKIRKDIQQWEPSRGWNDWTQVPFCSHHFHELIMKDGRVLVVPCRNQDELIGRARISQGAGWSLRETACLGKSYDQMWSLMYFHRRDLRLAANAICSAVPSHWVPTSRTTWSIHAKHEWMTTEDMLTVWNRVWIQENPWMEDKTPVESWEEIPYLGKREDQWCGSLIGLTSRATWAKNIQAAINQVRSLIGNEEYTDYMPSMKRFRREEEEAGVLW
Induced myeloid leukemia cell differentiation protein Mcl-1, sequence (Q07820 whole entry): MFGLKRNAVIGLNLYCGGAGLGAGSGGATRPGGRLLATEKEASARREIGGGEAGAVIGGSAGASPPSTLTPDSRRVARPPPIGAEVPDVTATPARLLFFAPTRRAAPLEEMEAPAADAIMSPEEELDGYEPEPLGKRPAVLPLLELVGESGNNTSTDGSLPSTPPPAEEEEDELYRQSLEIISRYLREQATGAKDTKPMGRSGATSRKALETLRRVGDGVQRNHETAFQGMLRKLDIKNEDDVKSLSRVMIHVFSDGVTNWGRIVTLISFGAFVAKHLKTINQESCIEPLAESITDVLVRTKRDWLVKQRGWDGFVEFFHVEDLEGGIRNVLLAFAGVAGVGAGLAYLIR
Cytochrome P450 2D6, sequence (P10635 whole entry): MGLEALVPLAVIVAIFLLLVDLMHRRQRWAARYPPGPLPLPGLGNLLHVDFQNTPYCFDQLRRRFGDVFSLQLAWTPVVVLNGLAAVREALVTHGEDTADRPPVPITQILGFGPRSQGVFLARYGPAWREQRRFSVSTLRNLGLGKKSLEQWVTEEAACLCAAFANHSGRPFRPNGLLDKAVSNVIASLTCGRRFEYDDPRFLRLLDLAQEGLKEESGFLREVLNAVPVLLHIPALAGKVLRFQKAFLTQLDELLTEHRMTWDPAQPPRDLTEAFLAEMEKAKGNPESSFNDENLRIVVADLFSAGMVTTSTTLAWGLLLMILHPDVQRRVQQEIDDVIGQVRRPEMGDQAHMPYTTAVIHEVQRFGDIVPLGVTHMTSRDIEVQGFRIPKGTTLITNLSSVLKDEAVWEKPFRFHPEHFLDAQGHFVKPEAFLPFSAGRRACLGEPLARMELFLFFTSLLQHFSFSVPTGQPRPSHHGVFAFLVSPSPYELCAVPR

## CC(=O)OC1CC(OC(C)=O)[C@]2(C)C(CC(=O)[C@]3(C)C2CC[C@@]2(C)C(C(=O)O)OC(=O)C4OC423)C1(C)C (stereo partly drawn)
[1]
  AC50: 39.8 µM (inconclusive)

## COc1ccc(-c2coc3ccc(OC4OC(COC(C)=O)C(OC(C)=O)C(OC(C)=O)C4OC(C)=O)cc3c2=O)cc1 (stereo not drawn)
[1]
  AC50: 1.58 µM (inconclusive)

## CCOC(=O)c1cnc(SC)nc1Oc1cccc(NC(=O)c2cccc(Cl)c2Cl)c1
[2]
  IC50: > 79 µM (inactive)

## CC(SCc1ccccc1)C(=O)N/N=C/c1ccc(OCC(=O)NCc2ccco2)cc1 (stereo not drawn)
[3]
  IC50: 2 µM (active)

## Cc1cc(C)c(NC(=O)Cn2cc3c(n2)CCCC3)c(C)c1
[4]
  IC50: 20.5 µM (not active)

## O=C1COc2ccc(C(=O)COC(=O)/C=C/c3ccco3)cc2N1
[5]
  IC50: 13.4 µM (active)

## O=C1CC[C@@]23/C=C/C(=O)NCCCCNCCCNC(=O)/C=C/c4ccc(c2c4)OC3C1 (stereo partly drawn)
[1]
  AC50: 39.8 µM (inconclusive)

## CCCCNc1nc(C)nc2c1nc(C)n2CCC
[1]
  AC50: 31.6 µM (inconclusive)

## Cc1nc(Nc2ccccc2)c2nc(-c3ccccc3)n(CCCN3CCCCC3C)c2n1 (stereo not drawn)
[1]
  AC50: 12.6 µM (inconclusive)

## O=C1NC(Cc2ccc(O)cc2)c2nc3ccc(F)cc3c(=O)n2-c2cc3ccccc3cc21 (stereo not drawn)
[2]
  IC50: > 79 µM (inactive)

## COC(=O)C1=C(C)N(Cc2ccccc2)c2c(C(=O)OC)c(C(=O)OC)c(C(=O)OC)c(=O)n2C1c1ccccc1 (stereo not drawn)
[1]
  AC50: 5.01 µM (inconclusive) and 3.98 µM (inconclusive)

## O=NN(O)c1ccccc1
[1]
  AC50: 31.6 µM (inconclusive)

## O=C(CCCn1c(SCC(=O)c2ccc(O)c(O)c2)nc2ccccc2c1=O)NCC1CCCO1 (stereo not drawn)
[2]
  IC50: 17.4 µM (active)

## C/C(=N\Nc1cccc(C(=O)O)c1)c1ccc2c(c1)Nc1ccccc1S2
[6]
  IC50: 0.431 µM (active)
[7]
  IC50: > 100 µM (active)

## Cn1c(NCc2ccccc2)nc2c1c(=O)n(Cc1ccc(Br)cc1)c(=O)n2C
[8]
  EC50: 12.4 µM (active)
[4]
  IC50: 5.48 µM (active)
[9]
  EC50: 13.5 µM (active)
[10]
  EC50: 18 µM (active)

## COc1ccc(OCC(=O)OCCN(C)C)cc1
[3]
  IC50: 14.5 µM (active)

## O=C(Nc1ccc(Oc2ccccc2)cc1)C1CCCN(c2ncccn2)C1 (stereo not drawn)
[4]
  IC50: 14.7 µM (not active)
[11]
  EC50: > 53 µM (inactive)

## CCOC(=O)c1ccc(S(=O)(=O)Nc2nc3cc(S(=O)(=O)NC4=NCCCCC4)ccc3s2)cc1
[12]
  IC50: 107 µM (active)
[13]
  IC50: 33.4 µM (active)

## Cn1c(=O)n(CCc2ccccc2)c(=O)c2c1nc1n2CCCN1Cc1ccccc1
[2]
  IC50: > 79 µM (inactive)

## COC(=O)C1(C)C=CC2(CCCCC2)N1C(C)=O (stereo not drawn)
[1]
  AC50: 15.8 µM (inconclusive)

## CC(=O)OCC1=C(C(=O)O)N2C(=O)[C@@H](NC(=O)Cc3cccs3)[C@H]2SC1 [CEPHALOTHIN]
[5]
  IC50: 2.79 µM (active)

## Cc1ccc(NC(=O)CN(C)C(=O)CCCN2C(=O)c3ccccc3C2=O)cc1
[4]
  IC50: 10.3 µM (not active)

## Cc1ccc2nsnc2c1S(=O)(=O)N1CCN(CCc2ccccc2)CC1
[3]
  IC50: 11.8 µM (active)

## CCCCCc1c2c(cc(O)c1C(=O)O)OC(=O)c1cc(C(=O)CCCC)c(OC)cc1O2
[7]
  IC50: 39 µM (active)

## CNC(=O)c1ccc(-c2sc3nc(N4CCOCC4)c4c(c3c2N)CC(C)(C)OC4)o1
[14]
  AC50: 15.8 µM (inconclusive)
[13]
  IC50: 2.6 µM (active)
[2]
  IC50: > 79 µM (inactive)

## Cc1cc2nc(C)c(Cl)c(O)n2n1
[3]
  IC50: 13.2 µM (active)

## COc1cc(/C=N/Nc2nc3ccccc3nc2O)ccc1O
[13]
  IC50: 18 µM (active)

## COc1ccccc1N1CCN(C(=O)c2ccc(CSc3ccccc3)cc2)CC1
[4]
  IC50: 8.99 µM (not active)

## CCN(CC)CCNC(C(=O)Nc1cc(C(F)(F)F)ccc1Cl)c1ccccc1 (stereo not drawn)
[5]
  IC50: 9.32 µM (active)

## COc1ccc(CCNC(=O)c2cc(C(=O)c3cc(C)ccc3O)cn(CCc3ccc(OC)cc3)c2=O)cc1
[2]
  IC50: > 79 µM (inactive)

## O=C(Nc1cccc(C(=O)O)c1)/C(=C\C=C\c1ccccc1)NC(=O)c1ccccc1
[4]
  IC50: 13.6 µM (not active)

## O=C(CCCCCCCCC(=O)N/N=C/c1ccco1)N/N=C/c1ccco1
[5]
  IC50: 11.5 µM (active)

## O=C(CC1SC(=O)N(c2ccccc2)C1=O)Nc1cccc2ccccc12 (stereo not drawn)
[13]
  IC50: 70.4 µM (active)

## CCOC(=O)N1CCC(N2CCCC(C(=O)c3ccc4cc(OC)ccc4c3)C2)CC1 (stereo not drawn)
[15]
  IC50: 21.9 µM (active)
[16]
  EC50: 56.6 µM (active)
[17]
  EC50: 1.12 µM (active)

## O=C(c1nc2ccc(Cl)cn2c1CN1CCCC1)N1CCc2ccccc2C1
[5]
  IC50: 17.5 µM (active)

## CN(C)c1ccc(NC(=O)CN2CCN(CC(=O)Nc3ccc(F)cc3)CC2)cc1
[13]
  IC50: 17.2 µM (active)

## O=C(COc1ccc([N+](=O)[O-])cc1)Nc1ccc(C(=O)Nc2ccccc2C(=O)O)cc1
[5]
  IC50: 12.3 µM (active)

## COc1ccc(C(CC(=O)N2CCN(c3ccccc3)CC2)c2c(OC)cc(OC)c3ccc(=O)oc23)cc1 (stereo not drawn)
[2]
  IC50: 11.4 µM (active)
